Source: patent US10071097B2, “Molecular targets for the treatment of wounds, in particular chronic wounds” (URGO RECHERCHE INNOVATION ET DEVELOPPEMENT, priority 2013, dated 2018)

Tests used:
Format in all cases: cell-based
[1] = system: Normal Human Dermal Fibroblast (NHDF); experiment: ex vivo model of chronic wounds: NHDF differentiation in presence of chronic wound exudate; settings: TGFβ, exudate and Am580 versus same condition without Am580
Protocol: (§1) NHDF, isolated from human explants, were purchased from Promocell. NHDF were cultivated in DMEM-F12 (Invitrogen), supplemented with 10% FCS (Invitrogen, 5 μg/mL of insulin and 1 ng/mL of b-FGF (PromoKine)).
To collect exudates, two patients with mixed ulcers were recruited. For patient selection, it was decided to exclude any other comorbidity factor potentially involved in wound etiology: diabetes, peripheral arterial diseases, malnutrition. Exudates were collected from negative pressure therapy. All the exudates were centrifuged at 1,500×g for 3 minutes to remove cell debris. The supernatant was filtered and stored at −80° C. until use. Aliquots were used to determine protein concentration according to BCA method (Sigma).
(§2) For experiments, cells were deprived of insulin and b-FGF during 48 hours. Then, the cells were cultivated on collagen coated culture plates in DMEM-F12, supplemented with 10% FCS, 10 ng/mL of TGF-β1 (Promocell) for 4 days. Four points were tested in order to appreciate the effect of exudate on fibroblast differentiation: untreated cells (T−E−), fibroblasts treated with TGF-β1 (T+E−), cells treated with exudate (T−E+) and finally fibroblasts treated with TGF-β1 and exudate at the same time (T+E+).
For the chronic or non-healing wound model, chronic wound exudates were added to cell cultures (500 μg/mL of total proteins of exudate). […]

[2] = system: Normal Human Dermal Fibroblast (NHDF); experiment: fibroblast to myofibroblast differentiation of NHDF (markers αSMA, PI16, ACTC1 by RT-qPCR, αSMA positive cells)
Protocol: as §1, §2
The efficiency of fibroblast differentiation was estimated by analyzing the expression of the myofibroblast marker alpha smooth muscle actin (αSMA).
(§3) After four days of experiment, treated fibroblasts were lysed with TRIzol Reagent (Invitrogen) and stored at −80° C. Then RNA was purified using chloroform and precipitated by isopropanol. Total RNA was quantified on the NanoDrop 2000c Spectrophotometer (Thermo Scientific). Reverse transcription of 500 ng total RNA to cDNA was done with oligot dT (Invitrogen) using SuperScript III RT (Invitrogen) and RNAse OUT (Invitrogen). The cDNA was store at −20° C.
(§4) Quantitative real-time PCR (RT-qPCR) was done using 5 μL of 1:20 diluted cDNA on the LightCycler480 system (Roche) using Maxima SYBR Green qPCR Master Mix (Fermentas). Forward and reverse primers for αSMA were designed by Eurofins (MWG, αSMA forward: […] (SEQ ID NO:9), αSMA reverse: […] (SEQ ID NO:10)) and a 100 μM stock was stored at −20° C. Forward and reverse primer pairs were used for each RT-qPCR reaction. The cycling conditions were as follows: an initial 95° C. for 10 minutes, followed by 45 cycles of 95° C. for 15 sec, 58° C. for 30 sec, 72° C. for 20 sec. LightCycler 480 SW 1.5 was used to evaluate the TM curves, to determine the Cp and to approximate the relative concentration for each amplification reaction.
Cells grown in collagen coated culture dishes, and treated as previously described, were fixed with 4% paraformaldehyde (PFA) in PBS for 15 minutes and permeabilized with 2.5% Triton X-100 (Euromedex, 2000-B) in PBS for 3 minutes. After saturation with 5% BSA in PBS, cells were stained for α-SMA (Abcam, ab5694) and for DNA (DAPI). As secondary antibody, CyTM3 conjugated anti rabbit (GE Healthcare, PA43004) was used. […] To estimate the percentage of fibroblast differentiation due to the different treatments, the total number of cells per field was determined by the DAPI, and myofibroblasts, differentiated fibroblasts, were counted using the α-SMA staining. […]

[3] = system: Normal Human Dermal Fibroblast (NHDF); experiment: transcription factor mRNA levels in treated NHDF by RT-qPCR; settings: Gant 61
Protocol: FIG. 6: Graphic representation of the TCF4 (a), EGR2 (b), SOX9 (c), STAT4 (d), FOXS1 (e), PPARG (f), MAF (g), MEOX2 (h), and SIX2 (i) mRNA levels after NHDF (donor A) treatment for 48 h (light grey) or 72 h (dark grey) either with mock siRNA or siRNA directed against different TF mRNA (SOX9, EGR2, TCF4, or FOXS1) and concomitantly treated with TGF-β. For all graphs, the mock siRNA treated with TGF-β (T+E) condition was set to 100% for each time of treatment (48 h and 72 h).
FIG. 10: Graphic representation of the αSMA, GLI1, SOX9 and MAF mRNA levels assessed by RT-qPCR of NHDFs treated by Gant 61.
as §3, §4

Structure (SMILES)	PI16 mRNA [1]	αSMA mRNA [1]	differentiation followed with αSMA mRNA ([2]; Am580 5 nM in presence of TGFβ)	differentiation followed with ACTC1 mRNA ([2]; Am580 in presence of TGFβ)	differentiation followed with PI16 mRNA ([2]; Am580 in presence of TGFβ)	MAF mRNA [3]	SOX9 mRNA [3]	expression of GLI1 (mRNA) [3]	differentiation shown by α-SMA mRNA ([2]; Gant 61 4 μM)
CC1(C)CCC(C)(C)c2cc(C(=O)Nc3ccc(C(=O)O)cc3)ccc21 [Am580, 4-[(5,6,7,8-Tetrahydro-5,5,8,8-tetramethyl-2-naphthalenyl)carboxamido]benzoic acid]	increase	increase	increase differentiation	increase differentiation	increase differentiation	–	–	–	–
CN(C)c1ccccc1CN1CCCN(Cc2ccccc2N(C)C)C1c1ccncc1 [Gant 61]	–	–	–	–	–	decrease	increase	upregulate	upregulation
